From patent publication US8961624B2, “Ortho-phenylphenol compounds as markers for liquid hydrocarbons and other fuels and oils” (Dow Global Technologies LLC, priority 2011, dated 2015)

Columns and labels:
[1] = Solubility in organic solvents at −10° C.; format: physicochemical; conditions: for soluble at (concentration) in AROMATIC 200: AROMATIC 200, −10° C.; for soluble at (concentration) in DMAc / soluble at (concentration) in NMP / soluble at (concentration) in dipropylene glycol dimethyl ether / soluble at (concentration) in tetralin: −10° C.
[2] = Solubility of Ex. 13 Product (cold storage of 10% w/w solution in AROMATIC 200); format: physicochemical; conditions: 10% w/w solution in AROMATIC 200, −11° C. freezer for 2 weeks
Description: Solubility of Ex. 13 Product: A solution (10% w/w) in AROMATIC 200 was prepared at room temperature. The clear solution was placed in a −11° C. freezer for 2 weeks.

## c1ccc(-c2ccccc2OCc2ccccc2COc2ccccc2-c2ccccc2)cc1 [1,2-bis(([1,1′-biphenyl]-2-yloxy)-methyl)benzene]
[1]
  soluble at (concentration) in AROMATIC 200: 10%
  soluble at (concentration) in DMAc: 10%
  soluble at (concentration) in NMP: 10%
  soluble at (concentration) in dipropylene glycol dimethyl ether: 10%
  soluble at (concentration) in tetralin: 10%

## c1ccc(-c2ccccc2OCc2ccc(COc3ccccc3-c3ccccc3)cc2)cc1 [1,4-bis(([1,1′-biphenyl]-2-yloxy)-methyl)benzene]
other
  melting point: 140 to 142 °C
[1]
  soluble at (concentration) in NMP: 10%

## c1ccc(-c2ccccc2OCCCCOc2ccccc2-c2ccccc2)cc1 [1,4-bis([1,1′-biphenyl]-2-yloxy)butane]
other
  melting point: 62 to 67 °C
[1]
  soluble at (concentration) in DMAc: 10%
  soluble at (concentration) in NMP: 10%
  soluble at (concentration) in dipropylene glycol dimethyl ether: 10%

## CCCCCCCCCCCCOc1ccccc1-c1ccccc1 [2-(dodecyloxy)-1,1′-biphenyl]
other
  melting point: 27 to 29 °C
[1]
  soluble at (concentration) in AROMATIC 200: 10%
  soluble at (concentration) in dipropylene glycol dimethyl ether: 10%
  soluble at (concentration) in tetralin: 10%

## CCCCCCCCCCCCCCCCCCOc1ccccc1-c1ccccc1 [2-(octadecyloxy)-1,1′-biphenyl]
other
  melting point: 42 to 45 °C
[1]
  soluble at (concentration) in tetralin: < 5%

## CCCCCCCCCCCCCCOc1ccccc1-c1ccccc1 [2-(tetradecyloxy)-1,1′-biphenyl]
[1]
  soluble at (concentration) in tetralin: 7.5%

## c1ccc(-c2ccccc2OCc2ccc(-c3ccc(COc4ccccc4-c4ccccc4)cc3)cc2)cc1 [4,4′-bis(([1,1′-biphenyl]-2-yloxy)methyl)-1,1′-biphenyl]
other
  melting point: 149 to 151 °C
[1]
  soluble at (concentration) in NMP: 10%

## O=C(Oc1ccccc1-c1ccccc1)c1ccccc1 [Ex. 13 Product, [1,1′-biphenyl]-2-yl benzoate]
[2]
  crystallization from solution on cold storage: No visibly detectable crystallization occurred
